Test [1] relates to VSV. It is filed as cell-based, Vesicular stomatitis virus. Particulars: for VSV in supernatant: NB41A3, 8 h pi; for Effect on IFN-γ-induced inhibition of VSV replication: NB41A3 cells.
The subject of a further test is Influenza virus A/WSN/33. It is filed as cell-based.
In the next test the test system is Sindbis AR339 virus. The test is classed as cell-based.
A further test concerns HSV-1. The test is classed as cell-based, Herpes Simplex virus-1.
In test [2] the test system is VSV. The test is classed as cell-based, Vesicular stomatitis virus. Particulars: RAW, inhibitors, moi = 1, 8 h pi.
The subject of test [3] is VSV. The test is classed as cell-based, Vesicular stomatitis virus. Particulars: C6 Glia, moi = 1, 8 h pi.
The subject of test [4] is VSV. The test is classed as in vivo, mice. The settings on record: BALB/c male mice.
The target in a further test is type I NOS (Homo sapiens, UniProt P29475). The settings on record: Moore et al, 1993; cited from earlier work.
The test system of another test is aortic endothelial cells. Particulars: Clark et al, 1988; cited from earlier work.
Test [5] concerns NOS activity in NB41A3 neuroblastoma cells. The test is described as follows: NO2 release into culture medium (Griess reagent), NB41A3 cells. The test is classed as cell-based. As to the method:
(§1) FIGS. 2A–2C show the kinetics of the IFN-γ augmented NOS activity in NB41A3 neuroblastoma, C6 rat glioma and RAW cells. Aliquots of supernatant were removed from triplicate wells of 2×10^5 NB41A3 (FIG. 2A), RAW (FIG. 2B) or C6 (FIG. 2C) cells, cultured with medium or with 5 ng IFN-γ for up to 72 hours. The medium was assayed for the presence of NO2 using the Griess reagent, and expressed as nM NO2 ±S.D. present.
(§2) The concentration of NO in culture supernatants was determined by assaying its stable end-product, NO2 (Bredt et al, 1989). Briefly, equal volumes of experimental sample and Griess reagent (1% sulfanilamidide, 0.1% N-1-naphthylethylene-diamine, 5H3PO4) (Sigma) were incubated at room temperature for ten minutes. The reaction produces a pink color, which was quantitated at 540 nm against standards in the same buffer, using an automated plate reader (Bio-Tek, Inc., model EL309). The data is expressed as mM.
(In general: Griess reagent forms a coloured azo dye with nitrite.)

Test [6] deals with NOS activity in RAW cells. Put plainly: NO2 release into culture medium (Griess reagent), RAW cells. Particulars: RAW macrophage line, incubation with 5 ng rIFNγ. It is filed as cell-based, murine. As to the method:
as §1, §2

The subject of test [7] is NOS activity in C6 rat glioma cells. Put plainly: NO2 release into culture medium (Griess reagent), C6 cells. It is filed as cell-based. Particulars: astrocytes (C6), co-culture with IFN-γ. As to the method:
as §1, §2

[8] abbreviates: 5 μg IFN-γ for 72 hours prior to infection, inhibitors 400 mM, 8 hour infection, moi = 1.
[9] abbreviates: Media (no IFN-γ), inhibitors 400 mM, 8 hour infection, moi = 1.
[10] abbreviates: IFN-γ 5 ng for 72 hours, inhibitors 400 mM, moi = 1.
The mark [11] stands for this setting: Medium, inhibitors 400 mM, moi = 1.
[12] abbreviates: NMDA 500 mM for two minutes, inhibitors 400 mM, moi = 1.
The mark [13] stands for this setting: IFN-γ 5 ng for 72 hours, inhibitors 400 mM.

This is an account of results in patent US7012061B1 (New York University, priority 1998, dated 2006).

“And” between values parts separate entries of the source, which are not always exact repeats. Identical values can stand only once. Like-named read-outs stand apart in the source and are kept apart here. Bounds are passed on as bounds.

type I NOS, sequence (P29475 whole entry): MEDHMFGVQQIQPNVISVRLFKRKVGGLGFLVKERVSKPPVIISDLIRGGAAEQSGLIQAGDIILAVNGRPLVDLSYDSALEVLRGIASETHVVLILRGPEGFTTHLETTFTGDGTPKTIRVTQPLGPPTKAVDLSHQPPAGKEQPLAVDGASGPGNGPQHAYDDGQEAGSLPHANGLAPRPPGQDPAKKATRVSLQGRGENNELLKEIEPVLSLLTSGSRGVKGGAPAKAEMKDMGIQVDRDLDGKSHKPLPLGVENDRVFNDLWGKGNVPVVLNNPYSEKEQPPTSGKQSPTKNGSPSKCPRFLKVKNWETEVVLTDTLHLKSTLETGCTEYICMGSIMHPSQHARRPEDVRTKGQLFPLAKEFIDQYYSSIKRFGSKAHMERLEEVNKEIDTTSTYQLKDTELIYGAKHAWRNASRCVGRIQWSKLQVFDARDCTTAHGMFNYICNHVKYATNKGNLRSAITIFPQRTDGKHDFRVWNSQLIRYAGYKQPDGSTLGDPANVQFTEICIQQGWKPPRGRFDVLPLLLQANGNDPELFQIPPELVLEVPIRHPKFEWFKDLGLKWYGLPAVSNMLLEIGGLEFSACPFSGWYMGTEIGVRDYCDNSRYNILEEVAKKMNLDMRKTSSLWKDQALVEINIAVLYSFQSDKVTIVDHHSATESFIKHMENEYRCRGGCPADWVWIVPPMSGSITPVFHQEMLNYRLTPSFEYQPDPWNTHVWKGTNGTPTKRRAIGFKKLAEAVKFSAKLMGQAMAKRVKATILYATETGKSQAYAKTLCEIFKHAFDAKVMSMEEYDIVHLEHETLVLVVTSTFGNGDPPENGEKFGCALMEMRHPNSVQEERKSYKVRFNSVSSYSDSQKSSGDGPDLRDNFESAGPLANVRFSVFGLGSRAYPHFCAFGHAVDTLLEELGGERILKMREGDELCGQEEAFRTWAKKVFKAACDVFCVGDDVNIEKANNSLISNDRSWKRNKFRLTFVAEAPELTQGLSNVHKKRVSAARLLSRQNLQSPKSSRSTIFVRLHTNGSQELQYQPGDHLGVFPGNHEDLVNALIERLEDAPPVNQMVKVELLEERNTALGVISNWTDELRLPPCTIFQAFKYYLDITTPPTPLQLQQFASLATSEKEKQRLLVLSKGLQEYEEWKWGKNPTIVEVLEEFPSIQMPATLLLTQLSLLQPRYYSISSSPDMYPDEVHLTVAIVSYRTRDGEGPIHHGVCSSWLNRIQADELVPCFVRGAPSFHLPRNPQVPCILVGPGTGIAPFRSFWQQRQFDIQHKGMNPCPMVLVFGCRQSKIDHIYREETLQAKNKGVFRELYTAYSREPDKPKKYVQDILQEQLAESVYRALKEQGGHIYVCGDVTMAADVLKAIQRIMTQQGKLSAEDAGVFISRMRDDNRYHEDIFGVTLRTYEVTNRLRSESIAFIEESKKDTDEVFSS

In the case of `O=[N+]([O-])c1cccc2cn[nH]c12` [7-NI, 7-nitroindazole], the “VSV infectious virus in supernatant” value with VSV [1] (setting [8]) is recorded as 5.752 ± .331 Log10 PFU; with VSV [1] (setting [9]), 5.985 ± .428 Log10 PFU. The VSV in supernatant with VSV [1] (setting [10]) is 5.76 ± .10 log10 PFU; in the test with VSV [1] (setting [11]) it was 5.76 ± .18 log10 PFU; in the test on VSV [1] (setting [12]), 5.57 ± .15 log10 PFU; in the test with VSV [2] (IFN-γ 5 ng for 72 hours) it was 4.84 ± .15 log10 PFU; with VSV [2] (Medium), 5.87 ± .08 log10 PFU; with VSV [3] (setting [13]), 4.54 ± .14 log10 PFU. Further, the VSV in supernatant in the test with VSV [3] (Medium, inhibitors 400 mM) is recorded as 5.83 ± .14 log10 PFU; in the test on VSV [3], 4.59 ± .52 log10 PFU. Further, in the test with VSV [1], the “Effect on IFN-γ-induced inhibition of VSV replication” value is recorded as “abrogation”. In addition, the “Influenza infectious virus in supernatant” value (“Influenza infectious virus” for short) is 3.897 ± .089 Log10 PFU in the test on Influenza virus A/WSN/33 (setting [8]) and 5.560 ± .489 Log10 PFU with Influenza virus A/WSN/33 (setting [9]). In the test with Sindbis AR339 virus, the “Sindbis infectious virus in supernatant” value is 4.935 ± .056 Log10 PFU and 3.897 ± .089 Log10 PFU. Also, the “Effect on IFN-γ-induced inhibition of HSV-1 replication” value with HSV-1 is “abrogation”. Besides, the “HSV-1 infectious virus in supernatant” value in the test with HSV-1 was 5.159 ± .194 Log10 PFU and 5.170 ± .264 Log10 PFU. For the same molecule, the “Effect on IL-12-mediated enhanced clearance of VSV” value with VSV [4] (50 mg/kg with 200 ng IL-12, four days post infection) was “abrogated”. In addition, in the test on VSV [4] (50 mg/kg, four days post infection), the “Geometric mean titer (GMT) of virus in brain homogenates compared to indazole-treated mice” value was “ten-fold greater GMT”. The NOS isoform selectivity result on type I NOS is on record as “selective inhibitor of type I, but not types II or III NOS”.

Regarding `NC1=NN(c2cccc(C(F)(F)F)c2)CC1` [BW 755c], the “TNF-induced injury to aortic endothelial cells” value in the test with aortic endothelial cells was “reduced”.

As to `c1ccc2[nH]ncc2c1` [Indazole, indazole], the figures for the “VSV infectious virus in supernatant” value in the test with VSV [1] (setting [8]) and with VSV [1] (setting [9]) were 3.678 ± .174 Log10 PFU and 5.460 ± .408 Log10 PFU, respectively. Moreover, the VSV in supernatant is given as 4.23 ± .29 log10 PFU in the test on VSV [1] (setting [10]); 5.58 ± .27 log10 PFU in the test on VSV [1] (setting [11]); 4.39 ± .36 log10 PFU in the test on VSV [1] (setting [12]); 4.49 ± .48 log10 PFU in the test on VSV [2] (IFN-γ 5 ng for 72 hours); 5.45 ± .21 log10 PFU with VSV [2] (Medium); 4.48 ± .42 log10 PFU in the test with VSV [3] (setting [13]). The VSV in supernatant with VSV [3] (Medium, inhibitors 400 mM) was 5.63 ± .19 log10 PFU; in the test on VSV [3] it was 4.48 ± .17 log10 PFU. Also, the “Influenza infectious virus” value with Influenza virus A/WSN/33 (setting [8]) is recorded as 3.546 ± .212 Log10 PFU; with Influenza virus A/WSN/33 (setting [9]), 5.268 ± .350 Log10 PFU. The “Sindbis infectious virus in supernatant” value with Sindbis AR339 virus was 5.053 ± .217 Log10 PFU and 3.752 ± .046 Log10 PFU. The “HSV-1 infectious virus in supernatant” value in the test with HSV-1 was 5.140 ± .204 Log10 PFU and 3.175 ± .369 Log10 PFU.

Regarding `CN[C@@H](CCCNC(=N)N)C(=O)O` [L-NMA, L-N-Methyl Arginine], the figures for the “VSV infectious virus in supernatant” value in the test with VSV [1] (setting [8]) and in the test on VSV [1] (setting [9]) were 5.761 ± .151 Log10 PFU and 5.948 ± .089 Log10 PFU, respectively. Also, the VSV in supernatant with VSV [1] (setting [10]) is on record as 5.77 ± .21 log10 PFU; in the test with VSV [1] (setting [11]) it was 5.76 ± .25 log10 PFU; with VSV [1] (setting [12]) it was 5.59 ± .27 log10 PFU; in the test on VSV [2] (IFN-γ 5 ng for 72 hours), 5.71 ± .09 log10 PFU; in the test with VSV [2] (Medium) it was 5.83 ± .13 log10 PFU; in the test with VSV [3] (setting [13]), 5.59 ± .26 log10 PFU. The VSV in supernatant is reported as 5.85 ± .08 log10 PFU with VSV [3] (Medium, inhibitors 400 mM) and 5.38 ± .37 log10 PFU in the test with VSV [3]. Further, the “Effect on IFN-γ-induced inhibition of VSV replication” value in the test on VSV [1] is reported as “abrogation”. Besides, the “Influenza infectious virus” value is listed as 3.767 ± .208 Log10 PFU in the test on Influenza virus A/WSN/33 (setting [8]) and 5.810 ± .131 Log10 PFU in the test with Influenza virus A/WSN/33 (setting [9]). In the test on Sindbis AR339 virus, the “Sindbis infectious virus in supernatant” value was 5.033 ± .238 Log10 PFU and 3.796 ± .084 Log10 PFU. The “Effect on IFN-γ-induced inhibition of HSV-1 replication” value in the test with HSV-1 is listed as “abrogation”. Besides, the “HSV-1 infectious virus in supernatant” value in the test on HSV-1 is 5.359 ± .225 Log10 PFU and 5.227 ± .208 Log10 PFU.

Regarding `CN[C@H](CC(=O)O)C(=O)O` [NMDA], the figures for the VSV in supernatant in the test with VSV [1] (setting [12]) and with VSV [3] were 3.71 ± .20 log10 PFU and 5.54 ± .24 log10 PFU, respectively.

B1: IFN-γ: Recombinant mouse IFN-γ purchased from Genzyme (protein, UniProt P01580 23-155, looked up)
Interferon gamma: HGTVIESLESLNNYFNSSGIDVEEKSLFLDIWRNWQKDGDMKILQSQIISFYLRLFEVLKDNQAISNNISVIESHLITTFFSNSKAKKDAFMSIAKFEVNNPQVQRQAFNELIRVVHQLLPESSLRKRKRSRC
On to B1, for which, in the test on VSV [1], the “VSV infectious virus in supernatant” value is listed as 3.752 ± .034 Log10 PFU and the “VSV replication in NB41A3 cells” value is listed as “significantly inhibited”. In the test on Influenza virus A/WSN/33, the “Influenza infectious virus” value is recorded as 3.810 ± .130 Log10 PFU and the “Replication of influenza virus A/WSN/33 in NB41A3 cells” value is reported as “significantly inhibited”. Further, in the test on Sindbis AR339 virus, the “Replication of Sindbis virus in NB41A3 cells” value is “significantly inhibited” and the “Sindbis infectious virus in supernatant” value was 3.318 ± .373 Log10 PFU. Besides, in the test with HSV-1, the “HSV-1 infectious virus in supernatant” value is recorded as 3.467 ± .408 Log10 PFU and the “HSV-1 replication in NB41A3 cells” value was “significantly inhibited”. For the same molecule, the “NO production by NB41A3 cells” value in test [5] (IFN-γ treatment) is recorded as “significantly increased”. Moreover, the “Time to substantial levels of NO2 production” value in test [5] (Neuroblastoma cells, co-culture with IFN-γ) was found to be 72 h. The “Time to plateau levels of NO2 production” value in [6] is not above 24 h. The “Time to substantial levels of NO2 production” value in test [7] was determined as 72 h.
